Common to all, as to type: cell-based, human
Experiment [1] relates to HeLa cells. The experiment can be described thus: FR monitoring in cells loaded with FreSH-tracer. The settings on record: for change of FR: HeLa cells equilibrated with 5 μM FreSH-tracer for 2 hours. The protocol:
To utilize a FreSH-tracer for GSH monitoring in living cells, its cytotoxicity was evaluated. […] HeLa cells were equilibrated with treatment of 5 μM FreSH-tracer for 2 hours. […] The FR in the nucleus was about 1.5- to 2-fold higher than that of the cytoplasm.
The in vitro experiments described above established that H2O2 treatment diminishes only the FRGSH, while having little effect on the FRPSH. […] Thus, the FreSH-tracer can report the real-time dynamic changes of GSH concentration in live cells under oxidative stress.

Experiment [2] concerns hES-MSCs. The experiment can be described thus: GSH depletion or supplementation: clonogenic and migration capacities.
Experiment [3] relates to hES-MSCs. The experiment can be described thus: Chemotaxis to PDGF-AA. The conditions noted are these: for effect on chemoattraction to PDGF: naive hES-MSCs. Here is the method: FIGS. 4A, 4B, 4C and 4D are graphs showing analyses of colony-forming unit fibroblasts (CFU-F; n=15), limiting dilution by replating primary CFU colonies (n=6), chemotaxis to stromal derived factor-1α (SDFα; 150 ng/mL, n=8), and chemotaxis to 10 ng/mL platelet-derived growth factor (PDGF)-AA in the absence or presence of STI571 (0.5 μg/mL), a PDGFR inhibitor (n=8).
At this time, for differentiation media, the cells were maintained and cultured in each of adipogenic induction medium (DMEM supplemented with 5% FBS, […], […], […] and 0.5 mM isobutylmethylxanthine), osteogenic induction medium (DMEM supplemented with 5% FBS, […], […], and 10 mM glycerophosphate), and chondrogenic induction medium (e.g., StemPro chondrogenesis, Invitrogen). FIG. 3 is a graph showing the results of qPCR performed to quantify lineage-specific genes in non-differentiated(Non) FR^High cells and FR^Low cells and differentiated(Diff) FR^High cells and FR^Low cells. Additionally, FR^High hES-MSCs had approximately 4.7- and 4.9-fold higher numbers of CFU-F than did FR^Mild and FR^Low cells, respectively (FIG. 4A).

Experiment [4] concerns HeLa cells. Kind of experiment: Mitochondrial FR monitoring with MitoFreSH-tracer. The source says:
The mitochondrion is the major site of endogenous ROS generation during normal oxidative metabolism. Cytosolic GSH is transported to the mitochondria, preventing macromolecular damage and modulating ROS-induced signaling. To further analyze the FR heterogeneity in the cytoplasm, a mitochondria-targeting FreSH-tracer derivative, designated MitoFreSH-tracer was synthesized by attaching a triphenylphosphonium moiety to a FreSH-tracer.

Take `O=[N+]([O-])c1ccc(Cl)c([N+](=O)[O-])c1` [1-chloro-2,4-dinitrobenzene]: in experiment [1] (GSH-depleted HeLa cells), the “restoring of FR after diamide” value was “abrogated”. As for `CCCCS(=N)(=O)CCC(N)C(=O)O` (centres unmarked) [BSO, buthionine sulfoximine], the “effect on enhanced clonogenic and migration capacities and related gene upregulation” value in experiment [2] (FR^High hES-MSCs) is on record as “severely impaired”. Further, in experiment [3], the “effect on chemoattraction to PDGF” value is “significant repression”. On to `O[C@@H](CS)[C@@H](O)CS` [DTT], for which the “change of FR” value in experiment [1] is given as “rapidly increased”. Consider `CCOC(=O)CNC(=O)[C@H](CS)NC(=O)CC[C@H](N)C(=O)O` [GSH-EE, glutathione ethyl ester], for which the “effect on declined cellular functions” value in experiment [2] (FR^Low hES-MSCs) was “reversed”. In addition, the “effect on chemoattraction to PDGF” value in experiment [3] is given as “activation”. In the case of `CCN1C(=O)C=CC1=O` [NEM], the “change of FR” value in experiment [1] is reported as “gradually decreased”.

Regarding `Cc1ccc(NC(=O)c2ccc(CN3CCN(C)CC3)cc2)cc1Nc1nccc(-c2cccnc2)n1` [STI571], the “effect on PDGF chemotactic activity of FR^High cells” value in experiment [3] (STI571 0.5 μg/mL, 10 ng/mL PDGF-AA) is on record as “significantly blocked”. For the compound `CN(C)C(=O)/N=N/C(=O)N(C)C` [diamide], in experiment [1], the “change of FR” value is “gradually decreased”. The “change of mitochondrial FR” value in experiment [4] is on record as “decreased”.

As for antimycin A, the “change of mitochondrial FR” value in experiment [4] is “concentration-dependent decrease”.

(Values after patent publication US20210275596A1, “APPLICATION OF GENE PROFILE FOR CELLS ISOLATED USING FRESH-TRACER” (CELL2IN, INC., priority 2018, published 2021).)
